52 compounds from patent US8501713B2, “Drug combinations for the treatment of duchenne muscular dystrophy” (Summit Corporation PLC, priority 2007, dated 2013) can be followed below.

Some results are limits rather than exact numbers.

One test deals with Utrophin A promoter linked to a luciferase reporter gene. The test is described as follows: Luciferase reporter assay (murine H2K cells). The following applies: Mus musculus, H2K mdx, luciferase level relative to control; H2K/mdx/Utro A reporter cells; compound 10 μM final concentration; read-out: Activity. It counts as cell-based. In outline:
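Compound at 10 μM final was applied for 48 hrs to plated H2K mdx myoblasts (33° C, 10% CO2, interferon-containing medium) bearing a luciferase gene under the utrophin A promoter. Luminescence from lysed cells served as read-out.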
Consider `COc1ccc(C(=O)Nc2ccc3oc(-c4ccccc4)nc3c2)cc1` [Example 25, 4-methoxy-N-(2-phenylbenzo[d]oxazol-5-yl)benzamide], for which the activity at 10 µM was less than 200%.

Consider `CC(C)NC(=O)c1ccc2oc(-c3ccc(Cl)cc3)nc2c1` [Example 263, 2-(4-chlorophenyl)-N-isopropylbenzo[d]oxazole-5-carboxamide], for which the activity at 10 µM was in the range of 301 to 400%.

In the case of `Nc1ccc2oc(-c3ccccc3Cl)nc2c1` [Example 206, 2-(2-chlorophenyl)benzo[d]oxazol-5-amine], the activity at 10 µM fell in the range of 201 to 300%.

Take `O=[N+]([O-])c1ccc2nc(-c3ccccc3O)[nH]c2c1` [Example 106, 2-(6-nitro-1H-benzo[d]imidazol-2-yl)phenol]: the activity at 10 µM is less than 200%.

As for `CC(C)CNc1ccc2oc(-c3ccccc3)nc2c1` [Example 168, N-isobutyl-2-phenylbenzo[d]oxazol-5-amine], the activity at 10 µM was more than 401%.

`CCS(=O)(=O)c1ccc(-c2ccc3oc(-c4ccc(Cl)cc4)nc3c2)cc1` [Example 269, 2-(4-chlorophenyl)-5-(4-(ethylsulfonyl)phenyl)benzo[d]oxazole]: the activity at 10 µM was less than 200%.

On to `CC(C)C(=O)Nc1ccc2oc(-c3ccc(-c4ccccc4)cc3)nc2c1` [Example 411, N-(2-(biphenyl-4-yl)benzo[d]oxazol-5-yl)isobutyramide], for which the activity at 10 µM is less than 200%.

With `O=C(Cc1ccccc1)Nc1ccc2oc(-c3ccc(Cl)cc3)nc2c1` [Example 97, N-(2-(4-chlorophenyl)benzo[d]oxazol-5-yl)-2-phenylacetamide], the activity at 10 µM lay in the range of 201 to 300%.

Regarding `Cc1ccc(-c2nc3cc(NC(=O)C(C)C)ccc3[nH]2)cc1` [Example 175, N-(2-p-tolyl-1H-benzo[d]imidazol-5-yl)isobutyramide], the activity at 10 µM is less than 200%.

In the case of `CC(=O)Nc1ccc(-c2nc3cc(NC(=O)C(C)C)ccc3o2)cc1` [Example 374, N-(2-(4-acetamidophenyl)benzo[d]oxazol-5-yl)isobutyramide], the activity at 10 µM was less than 200%.

Turning to `CN(C)c1ccc(-c2nc3cc(NC(=O)c4ccncc4)ccc3o2)cc1` [Example 1, N-(2-(4-(dimethylamino)phenyl)benzo[d]oxazol-5-yl)isonicotinamide], the activity at 10 µM is less than 200%.

As for `CCCCC(=O)Nc1ccc2oc(-c3ccc(Cl)cc3)nc2c1` [Example 100, N-(2-(4-chlorophenyl)benzo[d]oxazol-5-yl)pentanamide], the activity at 10 µM is 201 to 300%.

As for `CCN(CC)c1ccc(-c2nc3cc(NC(=O)c4ccc(-c5ccccc5)cc4)ccc3o2)cc1` [Example 72, N-(2-(4-(diethylamino)phenyl)benzo[d]oxazol-5-yl)biphenyl-4-carboxamide], the activity at 10 µM was less than 200%.

Turning to `CCS(=O)(=O)c1ccc2oc(-c3ccc(C)cc3)nc2c1` [Example 179, 5-(ethylsulfonyl)-2-p-tolylbenzo[d]oxazole], the activity at 10 µM was more than 401%.

Regarding `CCS(=O)(=O)c1ccc2oc(-c3ccc(C)s3)nc2c1` [Example 418, 5-(ethylsulfonyl)-2-(5-methylthiophen-2-yl)benzo[d]oxazole], the activity at 10 µM was more than 401%.

For the compound `CC(C)C(=O)Nc1ccc2oc(C(C)c3ccccc3)nc2c1` (stereo not shown) [Example 309, N-(2-(1-phenylethyl)benzo[d]oxazol-5-yl)isobutyramide], the activity at 10 µM was less than 200%.

Regarding `O=C(Cc1ccccc1)Nc1ccc2oc(-c3cccnc3)nc2c1` [Example 50, 2-phenyl-N-(2-(pyridin-3-yl)benzo[d]oxazol-5-yl)acetamide], the activity at 10 µM is less than 200%.

On to `CC(C)CN(C)c1ccc2oc(-c3ccc(Cl)cc3)nc2c1` [Example 322, 2-(4-chlorophenyl)-N-isobutyl-N-methylbenzo[d]oxazol-5-amine], for which the activity at 10 µM is less than 200%.

On to `CC(=O)Nc1ccc(-c2nc3cc(Br)ccc3o2)cc1` [Example 359, N-(4-(5-bromobenzo[d]oxazol-2-yl)phenyl)acetamide], for which the activity at 10 µM is more than 401%.

Regarding `CCS(=O)(=O)c1ccc2oc(-c3ccc(Cl)cc3)nc2c1` [Example 180, 2-(4-chlorophenyl)-5-(ethylsulfonyl)benzo[d]oxazole], the activity at 10 µM was more than 401%.

Consider `CCCc1ccc(-c2nc3ccc(C(=O)O)cc3o2)cc1` [Example 109, 2-(4-propylphenyl)benzo[d]oxazole-6-carboxylic acid], for which the activity at 10 µM is less than 200%.

For the compound `Cc1cc2nc(-c3ccc(Cl)cc3)oc2cc1C` [Example 222, 2-(4-chlorophenyl)-5,6-dimethylbenzo[d]oxazole], the activity at 10 µM is more than 401%.

In the case of `Cc1ccc(-c2nc3ccccc3o2)cc1` [Example 173, 2-p-tolylbenzo[d]oxazole], the activity at 10 µM was 301 to 400%.

As to `O=[N+]([O-])c1ccc2nc(-c3ccc(Cl)cc3)[nH]c2c1` [Example 164, 2-(4-chlorophenyl)-6-nitro-1H-benzo[d]imidazole], the activity at 10 µM was 201 to 300%.

Take `CC(C)C(=O)Nc1ccc2oc(-c3ccc(Cl)cc3)nc2c1` [Example 101, N-(2-(4-chlorophenyl)benzo[d]oxazol-5-yl)isobutyramide]: the activity at 10 µM was more than 401%.

In the case of `O=C(Nc1ccc2oc(-c3ccc(C(F)(F)F)cc3)nc2c1)c1ccco1` [Example 128, N-(2-(4-(trifluoromethyl)phenyl)benzo[d]oxazol-5-yl)furan-2-carboxamide], the activity at 10 µM was less than 200%.

On to `CC(=O)Sc1ccc2oc(-c3ccc(Cl)cc3)nc2c1` [Example 407, S-2-(4-chlorophenyl)benzo[d]oxazol-5-yl ethanethioate], for which the activity at 10 µM is less than 200%.

Regarding `CCS(=O)(=O)c1ccc2oc(-c3cccc(Cl)c3F)nc2c1` [Example 391, 2-(3-chloro-2-fluorophenyl)-5-(ethylsulfonyl)benzo[d]oxazole], the activity at 10 µM lay in the range of 201 to 300%.

As to `CC(C)C(=O)Nc1ccc2[nH]c(-c3ccccc3)nc2c1` [Example 188, N-(2-phenyl-1H-benzo[d]imidazol-5-yl)isobutyramide], the activity at 10 µM is 301 to 400%.

For the compound `COc1ccc(C(=O)Nc2ccc3oc(-c4ccc(C)cc4)nc3c2)cc1` [Example 20, 4-methoxy-N-(2-p-tolylbenzo[d]oxazol-5-yl)benzamide], the activity at 10 µM was less than 200%.

Regarding `O=C(Nc1ccc2oc(-c3ccccc3)nc2c1)c1ccc(F)cc1` [Example 31, 4-fluoro-N-(2-phenylbenzo[d]oxazol-5-yl)benzamide], the activity at 10 µM is less than 200%.

Consider `O=[N+]([O-])c1cc2oc(-c3ccc4c(c3)OCO4)nc2cc1Cl` [Example 371, 2-(benzo[d][1,3]dioxol-5-yl)-5-chloro-6-nitrobenzo[d]oxazole], for which the activity at 10 µM was 301 to 400%.

For `CCS(=O)(=O)c1ccc2oc(-c3ccc4occc4c3)nc2c1` [Example 445, 2-(benzofuran-5-yl)-5-(ethylsulfonyl)benzo[d]oxazole], the activity at 10 µM is more than 401%.

`Cc1ccc(-c2nc3cc(NC(=O)C(C)C)ccc3s2)cc1` [Example 217, N-(2-p-tolylbenzo[d]thiazol-5-yl)isobutyramide]: the activity at 10 µM was more than 401%.

For the compound `CC(C)C(=O)Nc1ccc2oc(C3CCCCC3)nc2c1` [Example 248, N-(2-cyclohexylbenzo[d]oxazol-5-yl)isobutyramide], the activity at 10 µM is more than 401%.

Staying with this test, now noted: luciferase level relative to control; H2K/mdx/Utro A reporter cells; compound 10 μM final concentration.
On to `COc1ccc(-c2ccc3oc(-c4ccc(Cl)cc4)nc3c2)cn1` [Example 306, 2-(4-chlorophenyl)-5-(6-methoxypyridin-3-yl)benzo[d]oxazole], for which the Activity result is reported as “+ (Up to 200% relative to control)”.

With `CCN(CC)c1ccc(-c2nc3cc(N)ccc3o2)cc1` [Example 17, 2-(4-(diethylamino)phenyl)benzo[d]oxazol-5-amine], the Activity result is “+ (Up to 200% relative to control)”.

Still in this test, the particulars now being: luciferase reporter assay in murine H2K cells; classified relative to control.
`O=C(Nc1ccc(-c2nc3ccccc3[nH]2)cc1)c1ccccc1` [Example 497]: the Activity entry is “+ (Up to 200% relative to control)”.

On to `CC(=O)Nc1cccc(-c2nc3ccccc3s2)c1` [Example 513], for which the Activity result was “+ (Up to 200% relative to control)”.

`CC(=O)Nc1ccc(-c2nc3cc(Cl)c(NC(C)=O)cc3[nH]2)cc1` [Example 556]: the Activity result was “+ (Up to 200% relative to control)”.

In the case of `Nc1ccc2oc(-c3cccc(Cl)c3)nc2c1` [Example 489], the Activity entry is “++ (Between 201% and 300% relative to control)”.

For `Cc1ccc(-c2nc3ccccc3[nH]2)cc1N` [Example 620], the Activity result is on record as “++++ (Above 401% relative to control)”.

`O=C(CSc1nc[nH]n1)Nc1ccc(-c2nc3ccccc3s2)cc1` [Example 685]: the Activity result was “++ (Between 201% and 300% relative to control)”.

With `Cc1cc2nc(-c3ccc(N)cc3O)oc2cc1C` [Example 610], the Activity result is reported as “++++ (Above 401% relative to control)”.

With `Cc1ccc(C(=O)Nc2ccc3c(c2)ncn3C)cc1` [Example 670], the Activity result is “++ (Between 201% and 300% relative to control)”.

Turning to `CCS(=O)(=O)c1ccc2oc(S)nc2c1` [Example 574], the Activity entry is recorded as “+ (Up to 200% relative to control)”.

Consider `Cc1cccc(-c2nc3cc([N+](=O)[O-])ccc3o2)c1` [Example 533], for which the Activity entry is “++ (Between 201% and 300% relative to control)”.

In the case of `O=C(Nc1ccccc1-c1nc2ccccc2[nH]1)c1ccc(Cl)cc1Cl` [Example 500], the Activity result is reported as “+ (Up to 200% relative to control)”.

In the case of `O=[N+]([O-])c1ccc(Cl)c(-c2nc3ccccc3s2)c1` [Example 524], the Activity entry is recorded as “+ (Up to 200% relative to control)”.

On to `Nc1ccc2oc(-c3ccccc3F)nc2c1` [Example 569], for which the Activity result is “+++ (Between 301% and 400% relative to control)”.

For the compound `Nc1cc(-c2nc3ccccc3s2)ccc1Cl` [Example 592], the Activity entry was “++++ (Above 401% relative to control)”.

Regarding `CC(=O)Nc1ccc(-c2nc3cc(C)ccc3o2)cc1` [Example 662], the Activity entry is “+++ (Between 301% and 400% relative to control)”.
